Laboratory results taken from patent publication US20250121046A1, “MRNA THERAPEUTIC COMPOSITIONS” (Nutcracker Therapeutics, Inc., priority 2022, published 2025).
Entries after “also recorded” stand apart in the source; their conditions may differ.

Tests used:
[1] = test system: cervical cancer whose tumors express PD-L1 (CPS≥1); details: in combination with chemotherapy, with or without bevacizumab; cited from earlier work
[2] = test system: cervical cancer whose tumors express PD-L1 (CPS≥1); details: single agent, disease progression on or after chemotherapy, KEYNOTE-158; cited from earlier work
[3] = Mouse efficacy studies, tolerability assessments (Example 8); format: in vivo
[4] = Rat toxicology study, control mRNA in DV-140-F2 intramuscular (Example 8); format: in vivo, Sprague-Dawley rats; details: Therapeutic dose scaled for rat: 4 doses in 2 weeks, 30 μg RNA IM
[5] = as above; format: in vivo, Sprague-Dawley rats
Method: Briefly, Sprague-Dawley rats (n=8) were treated with a control mRNA formulated in DV-140-F2 at 0.03 or 0.3 mg/kg or PBS vehicle. Injections were done 4 times over the course of 13 days and were administered intramuscularly into the hind limb. Whole blood was taken for hematology, and serum taken for clinical chemistry and cytokine analysis at 6 hours post the first dose and final dose, and 2 weeks post the final dose. Additionally, 2 of the animals were sacrificed at 6 hours post the final dose and 2 weeks post final dose and a gross necropsy was performed. Tissue samples were retained and histopathology run on select organs.

CD3+ T cells = assay: T cell proliferation in co-culture with LIGHT-transfected HEK cells (Example 1); format: cell-based, human; details: versus soluble (Wt) LIGHT
Method: (§1) LIGHT variants were formulated in MessengerMax mRNA Transfection Reagent. Human embryonic kidney (HEK) cells were transfected with the LIGHT variant constructs for cell surface expression of LIGHT. CellTrace Violet (Thermo Fischer Scientific) was used to label CD3+ T cells from the resulting peripheral blood mononuclear cells (PBMC). 100 ng/mL of soluble CD3 Antibody was added to the resulting labeled CD3+ T cells. The T cell proliferation and interferon-gamma (IFN-7) secretion was evaluated about 5 days of co-culture.

HVEM = target: T1, HVEM (Homo sapiens, UniProt Q92956); assay: HVEM activation by LIGHT-transfected cells (HVEM reporter cell line); format: cell-based
T1 construct: host or cells: HVEM reporter cell line (not further described)
T1 sequence (Q92956 39-283): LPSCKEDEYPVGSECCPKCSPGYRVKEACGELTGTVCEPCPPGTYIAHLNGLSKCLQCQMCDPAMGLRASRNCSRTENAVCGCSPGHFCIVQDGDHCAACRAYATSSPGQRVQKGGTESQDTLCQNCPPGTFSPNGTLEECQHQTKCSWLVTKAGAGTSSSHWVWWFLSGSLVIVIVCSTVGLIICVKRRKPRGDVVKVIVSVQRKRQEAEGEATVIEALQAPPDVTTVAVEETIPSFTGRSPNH
From the text: FIGS. 1A and 1B depict the inhibition of the activation of membrane-stabilized LIGHT by soluble LIGHT.
FIG. 12 illustrates pre-blocking of soluble LIGHT in HVEM co-HEK transfected cells.
FIGS. 13A-13C are a comparison of HVEM activation with supernatant (blue) or cells (orange) for soluble LIGHT or membrane-stabilized LIGHT.
The incorporation of a modified membrane-stabilized LIGHT into a cancer immunotherapy allows for the effective targeting cancers, such as HPV-driven cancers.
[…] FIGS. 13A-13C show increased function of membrane-stabilized LIGHT on cells with HVEM reporter cell line and FIGS. 14A and 14B show increased cellular expression of membrane-stabilized LIGHT.

primary human T cells = assay: Human T cell proliferation, ENG or WT hLIGHT mRNA with hIL-12 mRNA (Example 1A); format: cell-based; details: anti-CD3 30 or 100 ng/mL, 4 days, relative to IL-12 and WT hLIGHT
Method: This study was designed to compare the ability of ENG and WT hLIGHT mRNAs in combination with hIL-12 mRNA to stimulate primary human T cell proliferation. Human T cells were isolated from PBMCs from 1 healthy donor and stained with CellTrace Violet. HEK293 cells were transfected with hIL-12 mRNA (RNA-683) and WT hLIGHT (RNA-786) or ENG hLIGHT (RNA-1359) mRNA formulated in Lipofectamine MessengerMAX (0.5 ng each mRNA per 1000 cells). Control cells were transfected with noncoding mRNA control in the same way. Transfected HEK293 cells were cocultured with the T cells in a 1:5 ratio in the presence of 30 ng/mL or 100 ng/mL anti-CD3 antibody to mimic antigen specific TCR engagement for 4 days at 37° C., 5% CO2. CD8+ T cell proliferation was assessed by flow cytometry and the proliferation index was calculated. […] The results are shown in FIG. 10A, where ENG=engineered; HEK=human embryonic kidney; IL-12=interleukin-12; PBMC=peripheral blood mononuclear cell; WT=wildtype. The data in FIG. 10A represent mean±standard deviation (n=4). Statistical analysis was performed by unpaired student's t-test (P<0.05).

HEK cells = assay: Surface expression of LIGHT on transfected cells by flow cytometry using HVEM binding; format: cell-based, human; details: compared to soluble (wild type) LIGHT
From the text: FIG. 2A-2D are graphs illustrating the membrane-bound protein produced by the membrane-stabilized LIGHT generated according to an aspect of this disclosure as compared to soluble LIGHT.
FIGS. 14A and 14B depict the assessment of surface expression of soluble LIGHT or membrane-stabilized LIGHT by flow cytometry using HVEM binding.
This enhanced membrane stability for the disclosed membrane-stabilized LIGHT may increase the beneficial activity of LIGHT.
as §1

[6] = Therapeutic dose in mouse: 3 doses 7 days apart, ~1-2 μg RNA IT or IM
[7] = High dose in rat: 4 doses in 2 weeks, 100 μg RNA IM

In the case of pembrolizumab [KEYTRUDA], the overall survival [1] is listed as “improvements” and the objective response [2] is listed as “around 14%”.

In the case of `CCCCCCCCCCN(CC(N)=O)C(=O)CN(CCCCCCCCCC)C(=O)CN(CCCCCCCCCC)C(=O)CN(CCCCCCCCCC)C(=O)CNCCO` [Compound 140, N-(2-amino-2-oxoethyl)-N-decyl-2-(N-decyl-2-(N-decyl-2-(N-decyl-2-((2-hydroxyethyl)amino)acetamido)acetamido)acetamido)acetamide], the Body weight [3, 6] is reported as “No changes compared”, the “Injection site reactions or other clinical observations” value [3, 6] is reported as “None observed” and the tolerability ([3]; mouse efficacy studies) is reported as “well-tolerated”. The Body weight [4] was “No changes compared”, the Gross organ pathology [4] was “None observed” and the “Injection site reactions or other clinical observations” value [4] was “None observed”. The Clinical chemistries ([4]; compared to control) was “No meaningful changes”, the Hematology parameters ([4]; compared to control) was “No changes compared” and the Serum cytokines ([4]; compared to control) was “No changes compared”. For the same molecule, the Gross organ pathology [5, 7] was “None observed”, the “Injection site reactions or other clinical observations” value [5, 7] was “None observed” and the Clinical chemistries ([5]; High dose in rat: 4 doses in 2 weeks, 100 μg RNA IM, compared to control) was “No meaningful changes”. For the same molecule, the Hematology parameters ([5]; High dose in rat: 4 doses in 2 weeks, 100 μg RNA IM, return to baseline by D30) was “Some transient changes”, the Serum cytokines ([5]; High dose in rat: 4 doses in 2 weeks, 100 μg RNA IM, subset of cytokines, return to baseline by D30) was “Elevated levels in subset” and the tolerability ([5]; rat toxicology studies) was “well-tolerated”.

B1: 1356: mRNA encoding LIGHT ICD + TM (1-66) + (Gly4Ser)2 + LIGHT 92-240 (nucleic acid)
chain: AGGCAUAGAAGUCGAGACACAGCCACUAAGUAAGCCACCAUGGAAGAGUCUGUGGUCAGACCUAGCGUGUUCGUGGUCGACGGCCAGACCGACAUCCCCUUCACCAGACUGGGAAGAAGCCAUAGAAGACAGAGCUGCAGCGUGGCCAGAGUGGGCCUCGGCCUGCUGCUGCUGCUGAUGGGCGCUGGCCUGGCCGUGCAAGGCUGGUUCCUGCUGCAGCUGCACUGGCGGCUGGGCGGAGGCGGCGGCUCUGGCGGCGGAGGCUCCGUGAACCCCGCCGCCCACCUGACCGGCGCCAACAGCAGCCUGACAGGCAGCGGCGGUCCUCUGCUGUGGGAAACCCAGCUGGGACUGGCUUUUCUGAGAGGCCUGAGCUACCACGACGGCGCCCUGGUGGUGACCAAGGCCGGCUAUUACUACAUCUACAGCAAGGUGCAGCUGGGCGGCGUUGGAUGUCCUCUGGGCCUGGCUUCUACAAUCACCCACGGCCUGUACAAGCGGACCCCUAGAUACCCUGAGGAACUGGAGCUGCUGGUGUCCCAGCAGUCCCCAUGCGGCCGGGCCACAAGCUCUUCUAGAGUGUGGUGGGAUAGCAGCUUCCUGGGCGGAGUGGUGCACCUCGAGGCCGGAGAGAAAGUGGUGGUGCGGGUGCUGGAUGAGAGACUGGUUAGGCUGCGCGACGGCACACGGAGCUACUUCGGCGCCUUUAUGGUGUGAUAAGCGCCGCCUCCGGGACAGUGCACCCAGGCUGCGGCCCCUCCCCCGUCCUGGAGGUUCCCCAGCCCCACUUACCGCUUAAUGCGCCAAUAAACCAAUGAACGAAGCAAAAAAAAAAAAAAAAAAAAAAAAAAAAAAAAAAAAAAAAAAAAAAAAAAAAAAAAAAAAAAAAAAAAAAAAAAAAAAAAAAAAAAAAAAAAAAAAAAAAAAAAAAAAAAAAAAAAAAAAAAAAAAAAAAAAAAAAAAAAAAAAAAAAAAAAAAAAAAAAAAAAAAAAA
modifications: LIGHT ICD TM 1-66 RLG Gly4Ser 2 LIGHT 92-240 1356 nt
For B1, the T-cell proliferation (CD3+ T cells) was “increase”.

B2: soluble LIGHT: Wild-type soluble human LIGHT (protein)
chain: MEESVVRPSVFVVDGQTDIPFTRLGRSHRRQSCSVARVGLGLLLLLMGAGLAVQGWFLLQLHWRLGEMVTRLPDGPAGSWEQLIQERRSHEVNPAAHLTGANSSLTGSGGPLLWETQLGLAFLRGLSYHDGALVVTKAGYYYIYSKVQLGGVGCPLGLASTITHGLYKRTPRYPEELELLVSQQSPCGRATSSSRVWWDSSFLGGVVHLEAGEEVVVRVLDERLVRLRDGTRSYFGAFMV
modifications: Human Wild Type LIGHT (786) aa
For B2, the “effect of soluble LIGHT on HVEM activation/signaling by membrane-stabilized LIGHT” value (HVEM; presence of soluble LIGHT) was “decreases; also recorded: competes for HVEM binding and reduces signaling”.

B3: ENG hLIGHT: mRNA encoding human LIGHT with amino acids 66-92 replaced by 10 amino acid linker …; membrane-stabilized (nucleic acid)
chain: AGGCAUAGAAGUCGAGACACAGCCACUAAGUAAGCCACCAUGGAGGAGAGCGUGGUGCGGCCUAGCGUGUUCGUGGUCGACGGCCAGACCGACAUCCCCUUCACCAGACUGGGAAGAAGCCACAGAAGGCAGUCUUGCUCCGUGGCCAGAGUGGGCCUGGGCCUGCUCCUGCUGCUGAUGGGCGCUGGCCUGGCCGUGCAAGGCUGGUUCCUGCUGCAGCUGCACUGGCGGCUGGGCAGCAGCGCCUCUACCGAUAAGACCCACACCGUGAACCCUGCCGCCCACCUGACCGGCGCCAACAGCUCUCUGACCGGAUCUGGCGGACCUCUGCUGUGGGAGACACAGCUGGGCCUUGCUUUUCUGCGGGGCCUGAGCUACCACGACGGCGCUCUGGUGGUUACAAAGGCCGGCUACUACUACAUCUACAGCAAGGUGCAGCUGGGAGGCGUGGGUUGUCCACUGGGACUGGCCAGCACAAUCACACACGGCCUUUAUAAGCGGACCCCUAGAUACCCCGAGGAACUGGAACUGCUGGUCUCCCAGCAGAGCCCUUGCGGCAGAGCCACAAGCAGCAGCAGAGUGUGGUGGGACAGCUCAUUCCUGGGCGGCGUGGUGCAUCUGGAAGCCGGCGAGAAAGUGGUGGUCAGAGUGCUGGACGAGAGACUGGUGCGGCUGAGAGAUGGGACCCGCUCCUACUUCGGCGCCUUUAUGGUGUGAUAAGCGCCGCCUCCGGGACAGUGCACCCAGGCUGCGGCCCCUCCCCCGUCCUGGAGGUUCCCCAGCCCCACUUACCGCUUAAUGCGCCAAUAAACCAAUGAACGAAGCAAAAAAAAAAAAAAAAAAAAAAAAAAAAAAAAAAAAAAAAAAAAAAAAAAAAAAAAAAAAAAAAAAAAAAAAAAAAAAAAAAAAAAAAAAAAAAAAAAAAAAAAAAAAAAAAAAAAAAAAAAAAAAAAAAAAAAAAAAAAAAAAAAAAAAAAAAAAAAAAAAAAAAAAA
modifications: LIGHT ICD TM 1-66 RLG … LIGHT 92-240 1359, aka 1495 nt
notes: mRNA encoding human LIGHT with amino acids 66-92 replaced by 10 amino acid linker …; membrane-stabilized
For B3, the “CD8+ T cell proliferation and survival” value (primary human T cells) was “increased”, the T-cell proliferation (CD3+ T cells; listed as 1359) was “increase” and the T-cell proliferation (CD3+ T cells; listed as ENG LIGHT mRNA) was “increased”. The soluble fraction (HEK cells) was “significantly lower”, the “cell-surface expression of membrane-bound protein” value (HEK cells; listed as ENG LIGHT mRNA) was “higher” and the “cell-surface expression of membrane-bound protein” value (HEK cells; listed as Engineered LIGHT) was “significantly higher”. For the same molecule, the “bioactivity on transfected cells” value (HVEM; compared to WT LIGHT mRNA) was “higher”.
